{"source": "paper PMC11943016", "about": "“TBG096 Ameliorates Memory Deficiency in AD Mouse Model via Promoting Neurogenesis and Regulation of Hsc70/HK2/PKM2/LAMP2A Signaling Pathway” (International Journal of Molecular Sciences, 2025)", "key": {"[1]": {"test_system": "AMPK, p-AMPK, Hsc70, PKM2, HK2, LAMP2A, APP, Tau, p-Tau, Aβ oligomers", "assay": "Western blot of cerebral cortex of HFD-induced AD mice", "assay_type": "in vivo", "description": "In experiments with the HFD-induced AD mouse model, a total of 60 Institute of Cancer Research (ICR) male mice aged 4 weeks from Zhejiang Academy of Medical Sciences (Hangzhou, China) were used for animal experiments (permit number: ZJU20230121). The animals were provided free access to a chow diet and water. […] The HFD and normal diet were alternated every two days to maintain freshness. Weekly measurements were taken for water intake, food intake, and body weight. In the eighteenth week, the mice underwent Y-maze and NOR tests. The Morris water maze test was conducted during the nineteenth week. After confirming the successful establishment of the AD model characterized by cognitive impairment, oral administration of treatments commenced. […] Each group had 10 mice.\nApproximately 50 mg of cerebral cortex from brain tissues was homogenized in RIPA lysis buffer containing 1% protease inhibitor and 1% phosphatase inhibitor. Then, the sample was centrifuged at 12,000 rpm at 4 °C for 10 min, and the supernatant was transferred to a new tube. Protein concentrations were determined using the BCA kit, and 30 µg of protein from each sample was denatured by heating in water at 100 °C for 10 min. […] Finally, the strip was developed using chemiluminescence ECL reagent, and the blot density was quantified with ImageJ (National Institutes of Health, Bethesda, MD, USA)."}, "ICR mice": {"test_system": "ICR mice", "assay": "Acute toxicity experiment in mice", "assay_type": "in vivo", "description": "In the acute toxicity experiment of mice, a total of 40 ICR male mice aged 8 weeks from Zhejiang Academy of Medical Sciences (Hangzhou, China) were used. A standard experimental scheme was adopted according to the requirements of Zhejiang University Animal Experiment Ethics Committee (animal use license number: SYXK(Zhe)2019-0002, permit number: ZJU20230219). The mice were randomly divided into the following groups: (i) control group, (ii) TBG096 100 mg/kg group, (iii) TBG096 300 mg/kg group, and (iv) TBG096 600 mg/kg group. Each group had 10 mice. Soybean oil was used as a vehicle to dissolve TBG096. The body weight, food intake, and water consumption of mice in each group were recorded every day for two weeks. Blood was collected for biochemical index analysis."}, "BV-2 microglial cells": {"test_system": "BV-2 microglial cells", "assay": "Anti-inflammatory activity in LPS-treated BV-2 cells (Iba1 fluorescence)", "assay_type": "cell-based", "details": "24 h", "description": "BV-2 cells were obtained from Nanjing CoBioer Biotechnology Ltd., Co., Nanjing, China, and cultured in RPMI 1640 medium (Roswell Park Memorial Institute 1640 medium, Gibco, Grand Island, NY, USA) supplemented with 10% FBS and 1% penicillin/streptomycin. The anti-inflammatory activity of samples in BV-2 cells was determined as follows. Approximately 5 × 10^4 cells were seeded in each well of a 24-well microplate and were cultured under a humidified atmosphere with 5% CO2 at 37 °C for 24 h. Then, the medium was replaced by 500 µL RPMI 1640 medium containing 0.5% DMSO or samples at different concentrations for 2 h, and 500 µL medium containing LPS (1 µg/mL) was added and incubated for 24 h. Next, the medium of each well was sucked out, and each well was washed with phosphate-buffered saline (PBS) three times and fixed with 4% paraformaldehyde (500 µL/well) for 20 min at room temperature. The fixative was discarded, washed with PBS, and blocked for 60 min. […] After that, the cell nucleus was stained with diluted DAPI (SouthernBiotech, Birmingham, AL, USA) for 10 min, and the fluorescence image of BV-2 cells was observed under the fluorescence inverted microscope. Three regions were randomly selected to be observed and recorded with pictures. Image J software version 1.8.0 (National Institutes of Health, Bethesda, MD, USA) was finally used to analyze the fluorescence density of BV-2 cells."}, "[2]": {"assay": "Brain concentration after oral administration in rats (BBB passage)", "assay_type": "in vivo", "description": "In the pharmacokinetic analysis, a total of […] female SD rats aged 8 weeks from Zhejiang Academy of Medical Sciences (Hangzhou, China) (permit number: ZJU20240191) were used. A total of 15 rats were randomly divided into the following groups: (i) control group, (ii) TBG096 (14 mg/kg) oral administration group, and (iii) TBG096 (14 mg/kg) intravenous administration group. TBG096 was administered orally (dissolved in soybean oil) or intravenously (dissolved in Milli-Q water containing 2% Tween 80 and 5% ethanol) at 14 mg/kg after 12 h of fasting. Then, the blood from the posterior ocular venous plexus of rats was taken at 5, 15, 30, 60, 90, 120, 180, and 240 min after administration. […]\nThe collected blood was placed in a centrifuge tube (containing 20 µL heparin sodium solution) and centrifuged at 3000 rpm for 10 min to obtain a supernatant (plasma). […] The residue was dissolved in 100 µL of mobile phase, vortexed for 0.5 min, and centrifuged at 12,000 rpm for 3 min, and the supernatant was then prepared for HPLC analysis (Supersil Phenyl 5 µm (4.6 × 200 mm), elution with MeCN/H2O containing 0.1% formic acid (plasma samples: 57% MeCN/H2O, brain samples: 56% MeCN/H2O) for 30 min, flow rate: 1 mL/min, sample size: 20 µL, detected at 284 nm) and HR ESI-TOF-MS analysis."}}}
{"smiles": "O=C(SCCCCCCSCCCC(F)(F)F)c1cccc(O)c1O", "note": "[TBG096]", "values": [{"measurement": "phosphorylated AMPK/AMPK, LAMP2A, Hsc70, HK2 and PKM2 protein levels", "setting": "[1]", "result": "returned to normal"}, {"measurement": "APP, Tau, p-Tau, and Aβ oligomers protein expression", "setting": "[1]; vs HFD", "result": "significantly reduced"}, {"measurement": "acute toxicity in mice", "setting": "ICR mice; mouse, in vivo", "result": "does not exhibit acute toxicity"}, {"measurement": "body weight, food intake, water consumption", "setting": "ICR mice; oral 100, 300, and 600 mg/kg, two weeks, mice", "result": "no significant differences"}, {"measurement": "serum biochemical indices (AST, ALT, AST/ALT, ALB, DBIL)", "setting": "ICR mice; oral 100, 300, and 600 mg/kg, vs control group, mice", "result": "no significant changes"}, {"measurement": "LPS-induced overactivation of BV-2 cells", "setting": "BV-2 microglial cells", "result": "dose-dependently inhibited"}, {"measurement": "optimal concentration for inhibition of LPS-induced overactivation of BV-2 cells", "setting": "BV-2 microglial cells", "result": 0.3, "unit": "µM"}, {"measurement": "ability to cross the BBB", "setting": "[2]; brain samples 15 min after oral 14 mg/kg, HPLC and HR ESI-TOF-MS", "result": "has the ability to cross the BBB"}, {"measurement": "concentration at 15 min", "setting": "[2]; female, Sprague-Dawley, rat, brain, 15 min after single oral dose 14 mg/kg, rats", "result": "81.7 ± 6.81", "unit": "ng/g"}]}
